# Measurements as given in patent US10849336B2, “Cocoa-based food products” (IP Science Limited, priority 2011, dated 2020).
# Where “and” joins values, the source holds several entries; their conditions need not be identical. Identical values can stand only once.
# Columns and labels:
# [1] = system: CHD patients; assay: Clinical trial in CHD patients, daily lycopene, control chocolate or L-chocolate; assay type: in vivo, human
# Method: Commercially available dark chocolate (Green & Black's Dark Chocolate; 85% cocoa) was melted at 70° C. The melted chocolate was mixed with tomato oleoresin, containing 15% of lycopene (Lyc-O-Mato), in the ratio of 1.57 mg of oleoresin to 1 g of the chocolate. The mixture was blended for 10 minutes and then divided into daily […] 30 g portions and cooled down to the room temperature.
# Each […] 30 g chocolate portion contained 47.1 mg of tomato oleoresin or about 7 mg of lycopene.
# The melting and mixing procedures were performed as described above using the same commercially available dark chocolate, but instead of tomato oleoresin, sunflower oil (Floral™) was used.
# 47.1 mg of tomato oleoresin was pre-dissolved in ethanol and mixed with Whey Protein as described in Richelle et al (2002) J Nutr 132 404-408, WO01/091588 and US2002/01072992. Then the mixture was placed into gelatine capsules.
# 18 male CHD patients, age 47-69, were recruited for this study.
# Main inclusion criteria were: • elevated total serum cholesterol above 200 mg/dL and/or triglycerides above 150 mg/dL, • all patients were naive for any lipid-lowering medications, • stable clinical conditions and regimen of medications was t the last 3 months.
# Secondary inclusion criteria were: • positive blood markers on inflammatory oxidative damage, IOD, >20-30 μM MDA • positive blood on an antibody inflammatory marker, Px-IgG>0.250-0.300 U/ml
# All patients were randomised and divided into three equal groups of 6 patients each. Two groups receiving chocolate were blinded; the group receiving lycopene preparation along was open labelled. The period of the trial was 4 weeks.
# [2] = system: cholesterol; settings: cited from earlier work
# [3] = Baseline, group mean (unlabelled last line)
# [4] = Week 1, group mean (unlabelled last line)
# [5] = Week 2, group mean (unlabelled last line)
# [6] = Week 3, group mean (unlabelled last line)
structure (smiles),measurement,setting,value
CC(C)=CCC/C(C)=C/C=C/C(C)=C/C=C/C(C)=C/C=C/C=C(C)/C=C/C=C(C)/C=C/C=C(\C)CCC=C(C)C [Lycopene],ALT,[1]; [3],29.2 U/L
same,AST,[1]; [3],37.3 U/L
same,GL,[1]; [3],5.4 mmol/L
same,HDL,[1]; [3],40.5 mg/dL
same,IOD,[1]; [3],95 μM MDA
same,LDL,[1]; [3],157 mg/dL
same,Px-IgG,[1]; [3],0.762 U/ml
same,TC,[1]; [3],222 mg/dL
same,TG,[1]; [3],149 mg/dL
same,ALT,"[1]; Baseline, individual patient",35 U/L and 29 U/L and 26 U/L and 25 U/L and 36 U/L and 24 U/L
same,AST,"[1]; Baseline, individual patient",27 U/L and 49 U/L and 25 U/L and 44 U/L and 45 U/L and 34 U/L
same,GL,"[1]; Baseline, individual patient",4.4 mmol/L and 5.9 mmol/L and 6.1 mmol/L and 6.5 mmol/L and 5.6 mmol/L and 3.8 mmol/L
same,HDL,"[1]; Baseline, individual patient",44 mg/dL and 37 mg/dL and 40 mg/dL and 39 mg/dL and 42 mg/dL and 41 mg/dL
same,IOD,"[1]; Baseline, individual patient",95 μM MDA and 83 μM MDA and 49 μM MDA and 101 μM MDA and 162 μM MDA and 79 μM MDA
same,LDL,"[1]; Baseline, individual patient",161 mg/dL and 186 mg/dL and 147 mg/dL and 153 mg/dL and 159 mg/dL and 135 mg/dL
same,Px-IgG,"[1]; Baseline, individual patient",0.803 U/ml and 0.751 U/ml and 0.743 U/ml and 0.698 U/ml and 0.811 U/ml
same,TC,"[1]; Baseline, individual patient",219 mg/dL and 243 mg/dL and 210 mg/dL and 225 mg/dL and 231 mg/dL and 204 mg/dL
same,TG,"[1]; Baseline, individual patient",126 mg/dL and 165 mg/dL and 157 mg/dL and 161 mg/dL and 150 mg/dL and 134 mg/dL
same,ALT,[1]; [4],31.5 U/L
same,AST,[1]; [4],39.7 U/L
same,GL,[1]; [4],5.3 mmol/L
same,HDL,[1]; [4],40.3 mg/dL
same,IOD,[1]; [4],96 μM MDA
same,LDL,[1]; [4],157 mg/dL
same,Px-IgG,[1]; [4],0.823 U/ml
same,TC,[1]; [4],221 mg/dL
same,TG,[1]; [4],150 mg/dL
same,ALT,"[1]; Week 1, individual patient",31 U/L and 33 U/L (2×) and 29 U/L (2×) and 34 U/L
same,AST,"[1]; Week 1, individual patient",47 U/L and 46 U/L and 36 U/L and 31 U/L and 44 U/L and 34 U/L
same,GL,"[1]; Week 1, individual patient",6.4 mmol/L and 5.7 mmol/L and 4.9 mmol/L and 3.6 mmol/L and 5.1 mmol/L and 6.1 mmol/L
same,HDL,"[1]; Week 1, individual patient",39 mg/dL and 42 mg/dL and 40 mg/dL (2×) and 43 mg/dL and 38 mg/dL
same,IOD,"[1]; Week 1, individual patient",99 μM MDA and 158 μM MDA and 85 μM MDA and 94 μM MDA and 81 μM MDA and 57 μM MDA
same,LDL,"[1]; Week 1, individual patient",153 mg/dL and 160 mg/dL (2×) and 134 mg/dL and 185 mg/dL and 149 mg/dL
same,Px-IgG,"[1]; Week 1, individual patient",0.823 U/ml and 0.746 U/ml and 0.809 U/ml and 0.867 U/ml and 0.851 U/ml and 0.839 U/ml
same,TC,"[1]; Week 1, individual patient",224 mg/dL and 231 mg/dL and 205 mg/dL and 217 mg/dL and 241 mg/dL and 209 mg/dL
same,TG,"[1]; Week 1, individual patient",160 mg/dL and 152 mg/dL and 137 mg/dL and 130 mg/dL and 164 mg/dL and 159 mg/dL
same,ALT,[1]; [5],30.8 U/L
same,AST,[1]; [5],37.5 U/L
same,GL,[1]; [5],5.2 mmol/L
same,HDL,[1]; [5],40.3 mg/dL
same,IOD,[1]; [5],92 μM MDA
same,LDL,[1]; [5],156 mg/dL
same,Px-IgG,[1]; [5],0.818 U/ml
same,TC,[1]; [5],221 mg/dL
same,TG,[1]; [5],150 mg/dL
same,ALT,"[1]; Week 2, individual patient",29 U/L and 31 U/L (2×) and 28 U/L and 32 U/L and 34 U/L
same,AST,"[1]; Week 2, individual patient",43 U/L and 42 U/L and 31 U/L and 38 U/L and 41 U/L and 30 U/L
same,GL,"[1]; Week 2, individual patient",6.6 mmol/L and 5.2 mmol/L and 5.4 mmol/L and 4.1 mmol/L and 3.9 mmol/L and 6 mmol/L
same,HDL,"[1]; Week 2, individual patient",39 mg/dL (2×) and 41 mg/dL (2×) and 40 mg/dL and 42 mg/dL
same,IOD,"[1]; Week 2, individual patient",95 μM MDA and 139 μM MDA and 84 μM MDA and 91 μM MDA and 75 μM MDA and 68 μM MDA
same,LDL,"[1]; Week 2, individual patient",152 mg/dL and 158 mg/dL and 133 mg/dL and 159 mg/dL and 183 mg/dL and 150 mg/dL
same,Px-IgG,"[1]; Week 2, individual patient",0.812 U/ml and 0.809 U/ml and 0.815 U/ml and 0.844 U/ml and 0.830 U/ml and 0.799 U/ml
same,TC,"[1]; Week 2, individual patient",223 mg/dL and 230 mg/dL and 208 mg/dL (2×) and 216 mg/dL and 239 mg/dL
same,TG,"[1]; Week 2, individual patient",159 mg/dL and 151 mg/dL and 138 mg/dL and 132 mg/dL and 162 mg/dL and 158 mg/dL
same,ALT,[1]; [6],29.3 U/L
same,AST,[1]; [6],37.8 U/L
same,GL,[1]; [6],5.22 mmol/L
same,HDL,[1]; [6],40.2 mg/dL
same,IOD,[1]; [6],94 μM MDA
same,LDL,[1]; [6],154 mg/dL
same,Px-IgG,[1]; [6],0.806 U/ml
same,TC,[1]; [6],219 mg/dL
same,TG,[1]; [6],149 mg/dL
same,ALT,"[1]; Week 3, individual patient",32 U/L and 29 U/L and 25 U/L and 31 U/L (2×) and 28 U/L
same,AST,"[1]; Week 3, individual patient",42 U/L (2×) and 39 U/L and 35 U/L and 36 U/L and 33 U/L
same,GL,"[1]; Week 3, individual patient",6.2 mmol/L and 4.8 mmol/L and 5.1 mmol/L and 5 mmol/L and 4.4 mmol/L and 5.8 mmol/L
same,HDL,"[1]; Week 3, individual patient",39 mg/dL and 42 mg/dL and 40 mg/dL and 41 mg/dL (2×) and 38 mg/dL
same,IOD,"[1]; Week 3, individual patient",94 μM MDA and 136 μM MDA and 85 μM MDA and 93 μM MDA and 76 μM MDA and 81 μM MDA
same,LDL,"[1]; Week 3, individual patient",151 mg/dL and 157 mg/dL and 132 mg/dL and 155 mg/dL and 179 mg/dL and 152 mg/dL
same,Px-IgG,"[1]; Week 3, individual patient",0.834 U/ml and 0.781 U/ml and 0.84 U/ml and 0.795 U/ml and 0.809 U/ml and 0.774 U/ml
same,TC,"[1]; Week 3, individual patient",221 mg/dL and 227 mg/dL and 210 mg/dL and 214 mg/dL and 232 mg/dL and 211 mg/dL
same,TG,"[1]; Week 3, individual patient",155 mg/dL and 149 mg/dL and 135 mg/dL and 142 mg/dL and 161 mg/dL and 154 mg/dL
same,"changes in levels of elevated cholesterol, triglycerides and markers of oxidative damage or inflammation","[1]; after two weeks of administration, 7 mg lycopene or 30 g control bar",no changes
same,cholesterol-lowering effect,"[2]; 13 clinical studies, daily doses 25 mg of lycopene or above",7.55 ± 6.15 mg/dL
same,effect on cholesterol or other blood lipids,[2]; daily consumption of 6-10 mg,no effect on cholesterol or other blood lipids
